Data from ChEMBL document CHEMBL1129057, “Structure-based alignment and comparative molecular field analysis of acetylcholinesterase inhibitors” (J Med Chem, 1996).

Target: T1, Acetylcholinesterase (Torpedo californica, UniProt P04058)
Design: species or system Tetronarce californica
Description: (§1) Inhibitory activity against Acetylcholinesterase

T1 sequence (P04058 whole entry): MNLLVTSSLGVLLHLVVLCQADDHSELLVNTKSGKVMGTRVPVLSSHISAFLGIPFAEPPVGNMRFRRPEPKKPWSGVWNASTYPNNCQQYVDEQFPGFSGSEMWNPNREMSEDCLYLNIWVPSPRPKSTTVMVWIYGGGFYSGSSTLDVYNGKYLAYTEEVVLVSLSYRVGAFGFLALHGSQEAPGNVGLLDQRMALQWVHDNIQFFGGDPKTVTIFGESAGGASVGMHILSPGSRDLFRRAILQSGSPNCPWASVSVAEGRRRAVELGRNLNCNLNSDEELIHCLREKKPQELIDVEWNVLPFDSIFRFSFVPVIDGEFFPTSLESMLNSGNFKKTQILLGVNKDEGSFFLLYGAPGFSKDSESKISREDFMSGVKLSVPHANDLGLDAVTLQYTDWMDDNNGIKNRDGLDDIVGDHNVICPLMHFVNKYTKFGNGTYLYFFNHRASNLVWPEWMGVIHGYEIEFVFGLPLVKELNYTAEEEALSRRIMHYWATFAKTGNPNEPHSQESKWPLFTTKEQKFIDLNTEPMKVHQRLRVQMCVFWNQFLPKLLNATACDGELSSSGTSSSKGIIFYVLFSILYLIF

`C[N+]1(C)CCO[C@@](O)(C(F)(F)F)C1` and `CC(C)(C)[C@@]1(O)C[N+](C)(C)CCO1` are within 1.5-fold of each other in IC50: 3830 µM for the first, 3710 µM for the second.

`C[N+](C)(C)CCCCI` and `C[N+](C)(C)CCCCBr` are within 1.5-fold of each other in IC50: 471 µM for the first, 597 µM for the second.

Going from `C=CC[N+](C)(C)C` to `C=CCC[N+](C)(C)C`, the IC50 falls from 2920 µM to 848 µM (3.4-fold).

Going from `C[N+]1(C)CCO[C@@](O)(c2ccc(Cl)cc2)C1` to `C[N+]1(C)CCO[C@@](O)(c2ccc(N)cc2)C1`, the IC50 falls from 8130 µM to 691 µM (12-fold). The second is the more potent here.

Going from `CC(=O)Nc1cccc([N+](C)(C)C)c1` to `C[N+](C)(C)c1cccc(N)c1`, the IC50 falls from 1000 µM to 192 µM (5.2-fold).

`C[C@@]1(O)C[N+](C)(C)CCO1` and `C[N+]1(C)CCO[C@H](O)C1` are within 1.5-fold of each other in IC50: 1730 µM for the first, 1760 µM for the second.

`CC(=O)CCC[N+](C)(C)C` and `CCCC(=O)SCC[N+](C)(C)C` are within 1.5-fold of each other in IC50: 84.8 µM for the first, 126 µM for the second.

Compared with `CCOCC[N+](C)(C)C`, `CCCC(=O)OCC[N+](C)(C)C` is 5.1-fold lower in IC50: 1160 µM for the first, 229 µM for the second.

Compared with `C[N+](C)(C)CCCl` [CHLORMEQUAT CHLORIDE], `C[N+](C)(C)CCS` is 5.4-fold lower in IC50: 2390 µM for the first, 440 µM for the second. The second is the more potent here.

Compared with `C[N+]1(C)CCO[C@@](O)(c2ccc(C#N)cc2)C1`, `C[N+]1(C)CCO[C@@](O)(c2ccc([N+](=O)[O-])cc2)C1` is 2.3-fold lower in IC50: 11600 µM for the first, 5120 µM for the second. The second is the more potent here.

Compared with `CCSCC[N+](C)(C)C`, `CCCCCC[N+](C)(C)C` is 1.9-fold lower in IC50: 1510 µM for the first, 816 µM for the second.

Going from `C[N+](C)(C)CCCBr` to `C[N+](C)(C)CCCCCBr`, the IC50 rises from 87.9 µM to 534 µM (6.1-fold).

Compared with `CC(=O)Nc1ccc([C@@]2(O)C[N+](C)(C)CCO2)cc1`, `C=CCCCN(C)C` is 1.8-fold lower in IC50: 2070 µM for the first, 1130 µM for the second. The second is the more potent here.

Target: Acetylcholinesterase (Electrophorus electricus, UniProt O42275)
Sequence (O42275 whole entry): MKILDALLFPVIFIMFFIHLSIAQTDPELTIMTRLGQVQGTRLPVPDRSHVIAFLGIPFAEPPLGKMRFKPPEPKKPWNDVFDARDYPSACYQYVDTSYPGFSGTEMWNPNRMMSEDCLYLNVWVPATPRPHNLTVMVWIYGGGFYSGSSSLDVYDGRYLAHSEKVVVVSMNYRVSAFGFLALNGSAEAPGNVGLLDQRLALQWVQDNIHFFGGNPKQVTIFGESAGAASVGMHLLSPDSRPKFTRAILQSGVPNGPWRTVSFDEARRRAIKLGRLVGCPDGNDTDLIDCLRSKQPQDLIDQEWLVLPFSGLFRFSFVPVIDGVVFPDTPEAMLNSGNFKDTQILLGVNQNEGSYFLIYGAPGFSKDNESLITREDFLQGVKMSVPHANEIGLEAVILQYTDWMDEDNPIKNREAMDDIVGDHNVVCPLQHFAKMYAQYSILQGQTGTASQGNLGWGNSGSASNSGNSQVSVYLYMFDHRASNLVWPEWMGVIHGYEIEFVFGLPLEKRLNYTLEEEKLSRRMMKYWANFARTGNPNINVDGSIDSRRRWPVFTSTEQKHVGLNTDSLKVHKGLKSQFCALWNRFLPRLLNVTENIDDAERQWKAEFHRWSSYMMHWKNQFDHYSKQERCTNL
Description: as §1

Going from `CC(=O)Oc1cccc([N+](C)(C)C)c1` to `CCC(=O)Oc1cccc([N+](C)(C)C)c1`, the IC50 rises from 3.01 µM to 5.97 µM (2-fold).

Compared with `CCC(=O)Oc1ccc(C)c([N+](C)(C)C)c1`, `CC(=O)Oc1ccc(C)c([N+](C)(C)C)c1` is 13-fold lower in IC50: 69.1 µM for the first, 5.34 µM for the second.

First: C[N+](C)(C)c1cccc(O)c1
Second: COc1cccc([N+](C)(C)C)c1
The IC50 of the first is 610-fold lower: 0.973 µM for the first, 597 µM for the second.

First: COc1cccc([N+](C)(C)C)c1C
Second: CC(=O)Oc1cccc([N+](C)(C)C)c1C
The IC50 of the first is 5.9-fold higher: 239 µM for the first, 40.8 µM for the second.

First: Cc1c(O)cccc1[N+](C)(C)C
Second: CCC(=O)Oc1cccc([N+](C)(C)C)c1C
The IC50 of the first is 5.3-fold lower: 141 µM for the first, 754 µM for the second. The first is the more potent here.

Going from `COc1ccc(C)c([N+](C)(C)C)c1` to `Cc1ccc(O)cc1[N+](C)(C)C`, the IC50 falls from 345 µM to 2.83 µM (120-fold).

First: Cc1ccc([N+](C)(C)C)cc1O
Second: COc1cc([N+](C)(C)C)ccc1C
The IC50 of the first is 39-fold lower: 3.11 µM for the first, 122 µM for the second. The first is the more potent here.

First: CCC(=O)Oc1cc([N+](C)(C)C)ccc1C
Second: CC(=O)Oc1cc([N+](C)(C)C)ccc1C
The IC50 of the first is 5.7-fold higher: 3.77 µM for the first, 0.659 µM for the second.

Target: T1, Acetylcholinesterase
Remark: another data set of the same source
Description: as §1

For `C[N+](C)(C)c1cccc([N+](=O)[O-])c1`, the IC50 was 628 µM.

Target: Acetylcholinesterase (Homo sapiens, UniProt P22303)
Sequence (P22303 whole entry): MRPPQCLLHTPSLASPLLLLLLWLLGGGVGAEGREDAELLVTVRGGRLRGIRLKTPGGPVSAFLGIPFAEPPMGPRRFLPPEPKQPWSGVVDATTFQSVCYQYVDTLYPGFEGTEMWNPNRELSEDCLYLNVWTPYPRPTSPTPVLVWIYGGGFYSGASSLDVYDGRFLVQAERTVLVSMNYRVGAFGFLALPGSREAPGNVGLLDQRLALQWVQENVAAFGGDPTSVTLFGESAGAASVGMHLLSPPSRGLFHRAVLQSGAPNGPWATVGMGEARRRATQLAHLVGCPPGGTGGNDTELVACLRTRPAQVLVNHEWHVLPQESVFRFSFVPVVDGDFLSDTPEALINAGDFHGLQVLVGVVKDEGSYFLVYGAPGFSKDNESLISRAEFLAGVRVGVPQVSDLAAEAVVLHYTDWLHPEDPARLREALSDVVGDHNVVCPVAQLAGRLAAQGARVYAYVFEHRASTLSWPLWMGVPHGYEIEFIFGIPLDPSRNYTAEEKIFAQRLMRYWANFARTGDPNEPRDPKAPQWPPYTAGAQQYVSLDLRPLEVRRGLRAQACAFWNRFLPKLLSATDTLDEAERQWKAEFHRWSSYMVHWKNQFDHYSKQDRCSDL
Description: as §1

`CN1CC[C@@]2(C)c3cc(OC(=O)Nc4ccccc4)ccc3N(C)C12` (some centres not stated) and `CN1CC[C@@]2(C)c3cc(OC(=O)NCc4ccccc4)ccc3N(C)C12` (some centres not stated) are within 1.5-fold of each other in IC50: 0.35 µM for the first, 0.46 µM for the second.

Going from `CNC(=O)Oc1ccc2c(c1)[C@]1(C)CC[N+](C)(C)C1N2C` (some centres not stated) to `CC(C)NC(=O)Oc1ccc2c(c1)[C@]1(C)CCN(C)C1N2C` (some centres not stated), the IC50 rises from 0.034 µM to 35 µM (1000-fold).

Going from `CN1CC[C@@]2(C)c3cc(OC(=O)Nc4ccc(Cl)cc4)ccc3N(C)C12` (some centres not stated) to `CCCCNC(=O)Oc1ccc2c(c1)[C@]1(C)CCN(C)C1N2C` (some centres not stated), the IC50 falls from 1.8 µM to 0.152 µM (12-fold). The second is the more potent here.

First: CN(C(=O)NCc1ccccc1)C(=O)Oc1ccc2c(c1)[C@]1(C)CCN(C)C1N2C (some centres not stated)
Second: CN(C)C(=O)Oc1ccc2c(c1)[C@]1(C)CCN(C)C1N2C (some centres not stated)
The IC50 of the first is 6.5-fold higher: 6.3 µM for the first, 0.97 µM for the second.

For `CCN(CC)C(=O)Oc1ccc2c(c1)[C@]1(C)CCN(C)C1N2C` (some centres not stated), the IC50 was 40 µM.
